These results are taken from ChEMBL document CHEMBL3044802, “Synthesis, in vitro antimicrobial and antioxidant activities of chalcone and flavone derivatives holding allylic substitutions” (Med Chem Res, 2011).

Common to all, as to format: functional
One assay relates to Kluyveromyces marxianus. The assay is described as follows: Antimicrobial activity against Kluyveromyces marxianus after overnight incubation by conventional agar-dilution method.
Assay [1] has as its system Radical scavenging activity. Kind of assay: Antioxidant activity assessed as DPPH free radical scavenging activity after 30 min by UV-VIS spectrophotometer analysis.
Another assay relates to Staphylococcus aureus. Kind of assay: Antimicrobial activity against Staphylococcus aureus after overnight incubation by conventional agar dilution method. (Agar dilution tests growth on a series of plates holding different concentrations.)
The test system of a further assay is Escherichia coli. Kind of assay: Antimicrobial activity against Escherichia coli after overnight incubation by conventional agar-dilution method.
Assay [2] can be described thus: Antioxidant activity assessed as Fe2+ reducing power after 20 min.
Assay [3] has as its system Staphylococcus epidermidis. The assay is described as follows: Antimicrobial activity against Staphylococcus epidermidis after overnight incubation by conventional agar-dilution method.

pIC50: −log10 of the molar value. Converted amounts (≈) assume the structure as drawn.

Usually MIC stands for the lowest concentration that inhibits growth of the organism. A high value points to a less susceptible organism. The pIC50 is the IC50 on a negative log10 scale, so that one unit is a factor of ten. For `C=CCOc1c(/C=C/C(=O)c2cccc(CC=C)c2O)cccc1OC`, the minimum inhibitory concentration (MIC) against Kluyveromyces marxianus is 512 µg/mL (≈ 1460 µM); in the assay on Staphylococcus aureus, > 1000 µg/mL; in the assay with Escherichia coli, 512 µg/mL (≈ 1460 µM); in assay [3] it was > 1000 µg/mL. In addition, the negative logarithm of the IC50 (pIC50) in assay [1] was 3.79; in assay [2], 5.73.

Regarding `C=CCOc1ccc(/C=C/C(=O)c2cccc(CC=C)c2O)cc1OC`, the MIC was 512 µg/mL (≈ 1460 µM) with Kluyveromyces marxianus, > 1000 µg/mL against Staphylococcus aureus, 512 µg/mL (≈ 1460 µM) in the assay with Escherichia coli and > 1000 µg/mL in assay [3]. Moreover, the pIC50 is 4.07 in assay [1] and 5.53 in assay [2].

As to `C=CCOc1c(OC)cccc1-c1cc(=O)c2cccc(CC=C)c2o1`, the MIC with Kluyveromyces marxianus was 512 µg/mL (≈ 1470 µM); in the assay on Staphylococcus aureus it was > 1000 µg/mL; in the assay with Escherichia coli it was > 512 µg/mL; in assay [3] it was > 1000 µg/mL. In addition, the pIC50 is 3.49 in assay [1] and 5.95 in assay [2].

For `C=CCOc1ccc(-c2cc(=O)c3cccc(CC=C)c3o2)cc1OC`, the MIC with Kluyveromyces marxianus is > 512 µg/mL; against Staphylococcus aureus it was > 1000 µg/mL; against Escherichia coli, > 512 µg/mL; in assay [3], > 1000 µg/mL. The figures for the pIC50 in assay [1] and in assay [2] were 3.57 and 6.24, respectively.

For `OC(Cn1cncn1)(Cn1cncn1)c1ccc(F)cc1F` [FLUCONAZOLE], the MIC against Kluyveromyces marxianus was found to be 4 µg/mL (≈ 13.1 µM).

With `Cc1cc(NS(=O)(=O)c2ccc(N)cc2)no1` [SULFAMETHOXAZOLE], the MIC (against Staphylococcus aureus; against Escherichia coli; in assay [3]) was 4 µg/mL (≈ 15.8 µM) throughout.

Take `Cc1c(C)c2c(c(C)c1O)CCC(C)(C(=O)O)O2` (stereo not given) [TROLOX]: the results for the pIC50 in assay [1] and in assay [2] were 4.44 and 4.38, respectively.
